The source of these data is patent US8278338B2 (priority 2004, dated 2012).

One assay deals with T1, human μ-opiate receptor (Homo sapiens, UniProt P35372).
T1 construct: purchased Perkin Elmer, Zaventem, Belgium RB-HOM; host or cells: CHO-K1 cells
The assay is described as follows: Affinity for the human μ-opiate receptor, [3H]-naloxone displacement (SPA) on CHO-K1 receptor membrane preparation. In kind it is binding. As to conditions: for inhibition at 1 µM: 1.5 h, read-out: μ-Opioid receptor affinity (% inhibition at 1 μmol./l), 1 μmol./l test substance; for inhibition at 1 µM / μ-Opioid receptor affinity (% inhibition at 1 μmol./l): inhibition of specific [3H]-naloxone binding; for μ-Opioid receptor affinity (% inhibition at 1 μmol./l): 1 μmol./l test substance. The method, then: The receptor affinity for the human μ-opiate receptor was determined in a homogeneous batch on microtitre plates. To that end, serial dilutions of the substances to be tested were incubated for 90 minutes at room temperature with a receptor membrane preparation (15-40 μg of protein/250 μl of incubation batch) of CHO-K1 cells, which express the human μ-opiate receptor (RB-HOM receptor membrane preparation from Perkin Elmer, Zaventem, Belgium), in the presence of 1 nmol./l of the radioactive ligand [^3H]-naloxone (NET719, Perkin Elmer, Zaventem, Belgium) and 1 mg of WGA-SPA beads (wheatgerm agglutinin SPA beads from Amersham/Pharmacia, Freiburg, Germany) in a total volume of 250 μl. The incubation buffer used was 50 mmol./l of Tris-HCl supplemented with 50 μM MgCl2 and 0.05% bovine serum albumin. In order to determine non-specific binding, 100 μmol./l of naloxone were additionally added. When the ninety-minute incubation time was complete, the microtitre plates were centrifuged off for 20 minutes at 1000 g and the radioactivity was measured in a β-counter (Microbeta-Trilux, PerkinElmer, Freiburg, Germany). The percentage displacement of the radioactive ligand from its binding to the human μ-opiate receptor at a concentration of the test substances of 1 μmol./l was determined and stated as the percentage inhibition of specific binding. […] Ki values for the test substances were obtained by conversion by means of the Cheng-Prusoff equation (Cheng and Prusoff 1973).

The target of the next assay is 5-HT reuptake (Rattus norvegicus, UniProt P31652). The assay is described as follows: biochemical. As to conditions: for inhibition at 10 µM: read-out: Inhibition of 5-HT reuptake (% inhibition at 10 μmol./l), 10 μmol./l. From the text: In order to be able to carry out these in vitro studies, synaptosomes were freshly isolated from areas of rat brain. […] For NA reuptake, these vesicular particles were isolated from the hypothalamus of male rat brains, and for 5HT reuptake, they were isolated from the medulla+pons region.
Chain of 5-HT reuptake (P31652 whole entry): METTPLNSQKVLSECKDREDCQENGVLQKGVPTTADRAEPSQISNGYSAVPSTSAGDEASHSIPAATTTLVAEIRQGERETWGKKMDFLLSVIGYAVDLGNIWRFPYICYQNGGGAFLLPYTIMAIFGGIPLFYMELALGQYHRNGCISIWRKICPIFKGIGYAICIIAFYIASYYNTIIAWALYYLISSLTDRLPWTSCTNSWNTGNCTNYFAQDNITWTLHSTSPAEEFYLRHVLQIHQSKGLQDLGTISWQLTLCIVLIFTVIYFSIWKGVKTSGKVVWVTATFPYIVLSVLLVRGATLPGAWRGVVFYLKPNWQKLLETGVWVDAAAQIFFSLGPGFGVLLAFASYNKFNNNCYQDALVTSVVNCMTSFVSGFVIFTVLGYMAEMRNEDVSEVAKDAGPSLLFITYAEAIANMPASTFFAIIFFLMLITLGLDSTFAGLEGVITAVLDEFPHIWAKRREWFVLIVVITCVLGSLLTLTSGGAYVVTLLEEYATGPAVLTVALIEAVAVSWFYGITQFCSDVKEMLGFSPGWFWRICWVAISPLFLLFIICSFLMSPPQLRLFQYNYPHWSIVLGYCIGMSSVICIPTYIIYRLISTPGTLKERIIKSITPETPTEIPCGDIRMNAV
The IC50 values were obtained with the aid of the “Figure P” computer program (Version 6.0, Biosoft, Cambridge, England). […] The “Ligand” computer program (Version 4, Biosoft, England) was used to show KD values.

The target in a further assay is T2, NA reuptake (Rattus norvegicus, UniProt Q63380).
T2 construct: isolated from the hypothalamus of male rat brains; from tissue; host or cells: rat brain synaptosomes (P2 fraction), hypothalamus of male rats
T2 sequence (Q63380 1-617): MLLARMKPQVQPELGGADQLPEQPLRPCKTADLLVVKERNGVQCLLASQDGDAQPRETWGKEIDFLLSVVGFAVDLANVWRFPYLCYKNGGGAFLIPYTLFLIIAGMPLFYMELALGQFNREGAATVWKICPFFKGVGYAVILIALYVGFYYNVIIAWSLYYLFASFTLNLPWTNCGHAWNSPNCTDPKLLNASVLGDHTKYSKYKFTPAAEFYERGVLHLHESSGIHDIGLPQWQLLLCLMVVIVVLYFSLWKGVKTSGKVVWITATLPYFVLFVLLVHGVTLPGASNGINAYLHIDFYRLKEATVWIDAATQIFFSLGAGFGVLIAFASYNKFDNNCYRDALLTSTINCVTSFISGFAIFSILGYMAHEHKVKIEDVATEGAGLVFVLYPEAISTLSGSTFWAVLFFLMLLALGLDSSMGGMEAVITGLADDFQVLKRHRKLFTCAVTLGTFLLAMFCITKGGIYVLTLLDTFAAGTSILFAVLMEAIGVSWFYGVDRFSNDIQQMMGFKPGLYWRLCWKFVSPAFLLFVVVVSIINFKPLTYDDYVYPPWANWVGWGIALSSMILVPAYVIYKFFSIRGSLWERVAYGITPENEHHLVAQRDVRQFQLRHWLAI
Briefly: Inhibition of NA reuptake in rat brain synaptosomes (hypothalamus, P2 fraction). As to conditions: for inhibition at 10 µM: 10 μmol./l. In kind it is biochemical. The protocol:
In order to be able to carry out these in vitro studies, synaptosomes were freshly isolated from areas of rat brain. A so-called “P2” fraction was used in each case, which was prepared exactly according to the procedure of Gray, E. G. and Whittaker, V. P. (1962, J. Anat. […], 79-88). For NA reuptake, these vesicular particles were isolated from the hypothalamus of male rat brains, and for 5HT reuptake, they were isolated from the medulla+pons region.
IC50 values were obtained thereby which can be converted into inhibitor constants (Ki) according to the “Cheng-Prusoff equation” (Cheng, Y. C. and Prusoff, W. H., 1973, Biochem. Pharmacol. 22, 3099-3108). The IC50 values were obtained with the aid of the “Figure P” computer program (Version 6.0, Biosoft, Cambridge, England). Km values were calculated according to Lineweaver, H. and Burk, D. (1934, J. Am. Chem. Soc. 56, 658-666). The “Ligand” computer program (Version 4, Biosoft, England) was used to show KD values.

For another assay, the system named is rat. Briefly: Formalin test in the rat (phase 2, chronic pain component). In kind it is in vivo. The protocol: The formalin test (Dubuisson, D. and Dennis, S. G., 1977, Pain, 4, 161-174) represents a model for acute and chronic pain. By means of a single formalin injection into the dorsal side of a rear paw, a biphase nociceptive reaction was induced in freely mobile test animals; the reaction was assessed by observing three behaviour patterns which are clearly distinguishable from one another. The reaction is two-phase: phase 1=immediate reaction (duration up to 10 minutes; shaking of the paw, licking), phase 2=late reaction (after a rest phase; likewise shaking of the paw, licking; duration up to 60 minutes). The first phase reflects a direct stimulation of the peripheral nocisensors with a high spinal nociceptive input or glutamate release (acute pain phase); the second phase reflects a spinal and peripheral hypersensitisation (chronic pain phase). In the studies presented here, the chronic pain component (phase 2) was evaluated.
Formalin was administered subcutaneously in a volume of 50 μl and a concentration of 5% into the dorsal side of the right rear paw of each animal. The specific behavioural changes, such as lifting and shaking of the paw, weight shifting of the animal and biting and licking reactions, were observed and recorded over an observation period of from 21 to 27 minutes after the formalin injection. The various behaviours were combined to give the so-called pain rate (PR) which, based on 3-minute intervals, represents the calculation of a mean nociceptive reaction. The PR was calculated on the basis of a numerical weighting (=in each case factor 1, 2, 3) of the observed behaviours (corresponding to behaviour score 1, 2, 3) and was calculated using the following formula:
The size of the group was 10 animals (n=10).
On the basis of the PR calculations, the activity of the substance was determined in percent as the change relative to a control. The ED50 was determined by means of regression analysis.

[1] abbreviates: Cheng-Prusoff from IC50, [3H]-naloxone 1 nmol./l, read-out: μ-Opioid receptor affinity, Ki.
Where [2] appears, read: rat synaptosomes, Cheng-Prusoff.

Broadly, the Ki is a dissociation constant, usually derived from enzyme kinetics or from competition with a known ligand. Usually ED50 stands for the dose at which the effect has come halfway, by size or by number of responders.

Structures are written as SMILES. Read-outs that look alike come from different tables or passages of the source.

T1 sequence (P35372 whole entry): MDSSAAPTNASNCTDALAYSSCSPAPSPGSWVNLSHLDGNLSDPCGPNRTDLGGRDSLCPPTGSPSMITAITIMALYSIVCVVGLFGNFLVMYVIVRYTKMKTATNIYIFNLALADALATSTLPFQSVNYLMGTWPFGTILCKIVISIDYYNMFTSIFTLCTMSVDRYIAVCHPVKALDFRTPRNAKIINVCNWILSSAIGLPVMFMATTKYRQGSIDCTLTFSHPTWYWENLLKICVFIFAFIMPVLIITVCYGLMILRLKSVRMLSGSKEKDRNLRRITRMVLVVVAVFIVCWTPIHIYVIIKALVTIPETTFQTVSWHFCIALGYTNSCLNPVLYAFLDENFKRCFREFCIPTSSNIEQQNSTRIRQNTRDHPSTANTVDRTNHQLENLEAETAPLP

As for `CN(C)CC1Cc2cc(F)ccc2C1(O)c1cccnc1` (stereo not drawn) [Example 18, 2-dimethylaminomethyl-5-fluoro-1-pyridin-3-yl-indan-1-ol], the inhibition at 1 µM on human μ-opiate receptor is -6%. Further, the inhibition at 10 µM on 5-HT reuptake (rat synaptosomes) worked out at 56%; on NA reuptake it was 29%.
On the same counts, the results for `CN(C)CC1Cc2cc(OC(F)(F)F)ccc2C1(O)c1cccnc1` (stereo not drawn) [Example 20, 2-dimethylaminomethyl-1-pyridin-3-yl-5-trifluoromethoxy-indan-1-ol] are -19%, 71% and 38%.
Regarding `CN(C)CC1=C(c2cccnc2)c2ccc(O)cc2C1` [Example 7, 2-dimethylaminomethyl-1-pyridin-3-yl-3H-inden-5-ol], the results for the Ki on human μ-opiate receptor (setting [1]) and at 5-HT reuptake were 380 nM and 25 nM, respectively. In addition, at NA reuptake, the inhibition at 10 µM came out at 59%. Besides, the 50% effective dose (ED50) in the assay with rat (iv, phase 2, regression analysis, read-out: Inhibition of the nociceptive behaviour versus control, ED50 value) was determined as 2.93 mg/kg.
For `CN(C)CC1Cc2ccccc2C1(O)c1cccnc1` (single isomer, unassigned) [Example 1, 2-dimethylaminomethyl-1-pyridin-3-yl-indan-1-ol], the “μ-Opioid receptor affinity (% inhibition at 1 μmol./l)” value on human μ-opiate receptor came to 1%. Besides, the “Inhibition of 5-HT reuptake (% inhibition at 10 μmol./l)” value on 5-HT reuptake (rat synaptosomes) was determined as 63%. In addition, on NA reuptake, the inhibition at 10 µM stood at 33%.
With `CNCC[C@H](Oc1cccc2ccccc12)c1cccs1` [Duloxetin, duloxetin, reference compound], on human μ-opiate receptor, the “μ-Opioid receptor affinity (% inhibition at 1 μmol./l)” value is given as −10%. Besides, the “Inhibition of the nociceptive behaviour versus control, ED50 value” with rat (i.v., phase 2, regression analysis) was 1.43 mg/kg.
As to `CN(C)CC1CCOc2ccccc2C1(O)c1cccnc1` (stereo not drawn) [Example 24, 4-dimethylaminomethyl-5-pyridin-3-yl-2,3,4,5-tetrahydro-benzo[b]oxepin-5-ol], the inhibition at 1 µM on human μ-opiate receptor was 45%. The results for the inhibition at 10 µM on 5-HT reuptake (rat synaptosomes) and on NA reuptake were 12% and 9%, respectively.
Consider `COc1cccc2c1CCC(CN(C)C)C2(O)c1cccnc1` (stereo not drawn) [Example 36, 2-dimethylaminomethyl-5-methoxy-1-pyridin-3-yl-1,2,3,4-tetrahydro-naphthalen-1-ol], for which the “μ-Opioid receptor affinity (% inhibition at 1 μmol./l)” value on human μ-opiate receptor is −14%. Also, the inhibition at 10 µM at 5-HT reuptake (rat synaptosomes) worked out at 33%; against NA reuptake, 49%.
Take `COc1cccc2c1CCC(CN(C)C)=C2c1cccnc1` [Example 38, (5-methoxy-1-pyridin-3-yl-3,4-dihydro-naphthalen-2-ylmethyl)-dimethyl-amine]: the Ki is 460 nM at human μ-opiate receptor (setting [1]) and 370 nM on 5-HT reuptake (setting [2]). Moreover, the inhibition at 10 µM against NA reuptake came to 34%.
With `CN(C)CC1=C(c2cccnc2)c2ccccc2[S+]([O-])CC1` (stereo not drawn) [Example 16, dimethyl-(1-oxo-5-pyridin-3-yl-2,3-dihydro-1H-1λ4-benzo[b]thiepin-4-ylmethyl)-amine], at human μ-opiate receptor (setting [1]), the Ki stood at 210 nM. The inhibition at 10 µM on 5-HT reuptake (rat synaptosomes) was 35%; at NA reuptake, -2%.
For `CN(C)CC1CCCc2ccccc2C1(O)c1cccnc1` (stereo not drawn) [Example 11, 6-dimethylaminomethyl-5-pyridin-3-yl-6,7,8,9-tetrahydro-5H-benzocyclohepten-5-ol], the inhibition at 1 µM on human μ-opiate receptor stood at 20%. This compound also had an inhibitory constant (Ki) on 5-HT reuptake of 28 nM. Moreover, the inhibition at 10 µM on NA reuptake was 39%.
On to `CN(C)CC1=C(c2cccnc2)c2ccc(OC(F)(F)F)cc2C1` [Example 21, dimethyl-(3-pyridin-3-yl-6-trifluoromethoxy-1H-inden-2-ylmethyl)-amine], for which the inhibition at 1 µM on human μ-opiate receptor turned out to be 5%. This compound registered a Ki at 5-HT reuptake (setting [2]) of 430 nM. For the same compound, the inhibition at 10 µM on NA reuptake turned out to be 14%.
As to `CN(C)CC1Cc2cc(C(F)(F)F)ccc2C1(O)c1cccnc1` (stereo not drawn) [Example 22, 2-dimethylaminomethyl-1-pyridin-3-yl-5-trifluoromethyl-indan-1-ol], the inhibition at 1 µM on human μ-opiate receptor turned out to be 2%. Besides, the inhibition at 10 µM turned out to be 61% on 5-HT reuptake (rat synaptosomes) and 17% at NA reuptake.
As to `CN(C)CC1=C(c2cccnc2)c2cccc(O)c2CC1` [Example 39, 6-dimethylaminomethyl-5-pyridin-3-yl-7,8-dihydro-naphthalen-1-ol], the Ki was determined as 20 nM at human μ-opiate receptor and 250 nM at 5-HT reuptake. In addition, at NA reuptake, the inhibition at 10 µM amounted to 50%.
For `CN(C)CC1=C(c2cccnc2)c2ccc(C(F)(F)F)cc2C1` [Example 23, dimethyl-(3-pyridin-3-yl-6-trifluoromethyl-1H-inden-2-ylmethyl)-amine], the inhibition at 1 µM at human μ-opiate receptor is -8%. The inhibition at 10 µM at 5-HT reuptake (rat synaptosomes) came out at 47%; against NA reuptake it was 6%.
As for `CN(C)CC1=C(c2cccnc2)c2ccc(F)cc2C1` [Example 19, (6-fluoro-3-pyridin-3-yl-1H-inden-2-ylmethyl)-dimethyl-amine], the Ki was determined as 290 nM at human μ-opiate receptor and 43 nM at 5-HT reuptake (setting [2]). Moreover, at NA reuptake, the inhibition at 10 µM stood at 31%.
Consider `CN(C)CC1CCc2ccccc2C1(O)c1cccnc1` (stereo not drawn) [Example 8, 2-dimethylaminomethyl-1-pyridin-3-yl-1,2,3,4-tetrahydro-naphthalen-1-ol], for which the “Inhibition of the nociceptive behaviour versus control (% inhibition)” value in the assay with rat (46.4 mg/kg i.v., phase 2) is −65.8%.
Regarding `CN(C)CC1=C(c2cccnc2)c2ccccc2OCC1` [Example 26, dimethyl-(5-pyridin-3-yl-2,3-dihydro-benzo[b]oxepin-4-ylmethyl)-amine], on human μ-opiate receptor, the inhibition at 1 µM came out at 37%. In addition, the values for the inhibition at 10 µM on 5-HT reuptake (rat synaptosomes) and at NA reuptake were 50% and 9%, respectively.
For the compound `CN(C)CC1CSc2ccccc2C1(O)c1cccnc1` (stereo not drawn) [Example 31, 3-dimethylaminomethyl-4-pyridin-3-yl-thiochroman-4-ol], the figures for the inhibition at 10 µM at 5-HT reuptake (rat synaptosomes) and against NA reuptake were -4% and 48%, respectively.
`CN(C)CC1CCS(=O)(=O)c2ccccc2C1(O)c1cccnc1` (stereo not drawn) [Example 17, 4-dimethylaminomethyl-1,1-dioxo-5-pyridin-3-yl-2,3,4,5-tetrahydro-1H-1λ6-benzo[b]thiepin-5-ol]: the inhibition at 1 µM on human μ-opiate receptor was -13%. Further, the inhibition at 10 µM at 5-HT reuptake (rat synaptosomes) was 57%; against NA reuptake, 19%.
As to `COc1cccc2c1CCC(CN(C)C)C2(O)c1cccnc1` (stereo not drawn) [Example 37, 2-dimethylaminomethyl-5-methoxy-1-pyridin-3-yl-1,2,3,4-tetrahydro-naphthalen-1-ol], at human μ-opiate receptor, the “μ-Opioid receptor affinity (% inhibition at 1 μmol./l)” value amounted to 8%. For the same compound, the “Inhibition of 5-HT reuptake (% inhibition at 10 μmol./l)” value on 5-HT reuptake (rat synaptosomes) was 19%. At NA reuptake, the “Inhibition of NA reuptake (% inhibition at 10 μmol./l)” value is on record as 57%.
